Key:
[1] = test system: Ctenocephalides felis; experiment: Ctenocephalides felis oral test; assay type: in vivo; conditions: 100 ppm in citrated cattle blood; adult cat fleas; after 2 days
Procedure: For the purpose of production of a suitable active ingredient preparation, 10 mg of active ingredient are mixed with 0.5 ml of dimethyl sulphoxide. Dilution with citrated cattle blood gives the desired concentration. About 20 unfed adult cat fleas (Ctenocephalides felis) are placed into a chamber which is closed at the top and bottom with gauze. A metal cylinder whose bottom end is closed with parafilm is placed onto the chamber. The cylinder contains the blood/active ingredient preparation, which can be imbibed by the fleas through the parafilm membrane. After 2 days, the kill in % is determined. 100% means that all of the fleas have been killed; 0% means that none of the fleas have been killed.

[2] = test system: Phaedon cochleariae; experiment: Phaedon cochleariae spray test; assay type: in vivo; conditions: foliar, 168 h, 500 g/ha, larvae on Chinese cabbage leaf discs, after 7 days, read-out: efficacy
Procedure: (§1) To produce a suitable active ingredient preparation, 1 part by weight of active ingredient is dissolved with the stated parts by weight of solvent and made up with water containing an emulsifier concentration of 1000 ppm until the desired concentration is attained. To produce further test concentrations, the preparation is diluted with emulsifier-containing water. Discs of Chinese cabbage leaves (Brassica pekinensis) are sprayed with an active ingredient preparation of the desired concentration and, after drying, populated with larvae of the mustard beetle (Phaedon cochleariae). After 7 days, the efficacy in % is determined. 100% means that all the beetle larvae have been killed; 0% means that no beetle larvae have been killed.

[3] = test system: Spodoptera frugiperda; experiment: Spodoptera frugiperda spray test; assay type: in vivo; conditions: foliar, 168 h, 500 g/ha, caterpillars on maize leaf discs, after 7 days, read-out: efficacy
Procedure: as §1, with “water. Leaf discs” for “water. Discs”, “of maize (Zea mays)” for “of Chinese cabbage leaves (Brassica pekinensis)”, “with caterpillars” for “with larvae”, “the armyworm (Spodoptera frugiperda).” for “the mustard beetle (Phaedon cochleariae).”, “the caterpillars” for “the beetle larvae”, “no caterpillar has” for “no beetle larvae have”

[4] = test system: Myzus persicae; experiment: Myzus persicae spray test; assay type: in vivo; conditions: foliar, 100 g/ha, Chinese cabbage leaf discs, after 5-6 days, read-out: efficacy
Procedure: as §1, with “pekinensis) infested by all stages of the green peach aphid (Myzus persicae)” for “pekinensis)”, “concentration.” for “concentration and, after drying, populated with larvae of the mustard beetle (Phaedon cochleariae).”, “5-6” for “7”, “aphids” for “beetle larvae”

[5] = log P by HPLC on reversed-phase column (EEC Directive 79/831 Annex V.A8); assay type: physicochemical; conditions: reversed-phase C18 HPLC column; pH 7.8, aqueous ammonium hydrogencarbonate/acetonitrile; 55° C.; read-out: log P (neutral)
Procedure: The log P values are measured according to EEC Directive 79/831 Annex V.A8 by HPLC (high-performance liquid chromatography) on a reversed-phase column (C 18). Temperature: 55° C. The LC-MS determination in the acidic range is effected at pH 2.7 using 0.1% aqueous formic acid and acetonitrile (contains 0.1% formic acid) as eluents; linear gradient from 10% acetonitrile to 95% acetonitrile. Called log P (HCOOH) in the table. LC-MS determination in the neutral range is effected at pH 7.8 with 0.001 molar aqueous ammonium hydrogencarbonate solution and acetonitrile as eluents; linear gradient from 10% acetonitrile to 95% acetonitrile. Called log P (neutral) in the table. Calibration is carried out using unbranched alkan-2-ones (having 3 to 16 carbon atoms) with known log P values (log P values determined on the basis of the retention times by linear interpolation between two successive alkanones).

[6] = test system: Musca domestica; experiment: Musca domestica test; assay type: in vivo; conditions: 4 ppm; adult houseflies; after 2 days
Procedure: To produce a suitable active ingredient preparation, 10 mg of active ingredient are mixed with 0.5 ml of dimethyl sulphoxide, and the concentrate is diluted with water to the desired concentration. Vessels containing a sponge treated with sugar solution and the active ingredient preparation of the desired concentration are populated with 10 adult houseflies (Musca domestica). After 2 days, the kill in % is determined. 100% means that all of the flies have been killed; 0% means that none of the flies have been killed.

[7] = test system: Lucilia cuprina; experiment: Lucilia cuprina test; assay type: in vivo; conditions: 100 ppm; L1 larvae; after 2 days
Procedure: To produce a suitable active ingredient preparation, 10 mg of active ingredient are mixed with 0.5 ml of dimethyl sulphoxide, and the concentrate is diluted with water to the desired concentration. About 20 L1 larvae of the Australian sheep blowfly (Lucilia cuprina) are transferred into a test vessel containing minced horsemeat and the active ingredient preparation of the desired concentration. After 2 days, the kill in % is determined. 100% means that all the larvae have been killed; 0% means that no larvae have been killed.

[8] = test system: Ctenocephalides felis; experiment: Ctenocephalides felis in vitro contact test with adult cat fleas; assay type: in vivo; conditions: application rate 5 μg/cm^2 (=500 g/ha), after 48 h
Procedure: For the coating of the test tubes, 9 mg of active ingredient are first dissolved in 1 ml of acetone p.a. and then diluted to the desired concentration with acetone p.a. 250 μl of the solution are distributed homogeneously on the inner walls and the base of a 25 ml test tube by turning and rocking on an orbital shaker (rocking rotation at 30 rpm for 2 h). With 900 ppm active ingredient solution and internal surface area 44.7 cm^2, given homogeneous distribution, an area-based dose of 5 μg/cm^2 is achieved. After the solvent has evaporated off, the tubes are populated with 5-10 adult cat fleas (Ctenocephalides felis), sealed with a perforated plastic lid and incubated in a horizontal position at room temperature and ambient humidity. After 48 h, efficacy is determined. To this end, the test tubes are stood upright and the fleas are knocked to the base of the tube. Fleas which remain motionless at the base or move in an uncoordinated manner are considered to be dead or moribund. […] 100% efficacy means that all the fleas were dead or moribund. 0% efficacy means that no fleas were harmed.

[9] = test system: Meloidogyne incognita; experiment: Meloidogyne incognita test; assay type: in vivo; conditions: 20 ppm; lettuce; after 14 days
Procedure: To produce a suitable preparation of active ingredient, 1 part by weight of active ingredient is mixed with the stated amount of solvent and the concentrate is diluted with water to the desired concentration. Vessels are filled with sand, active ingredient solution, an egg/larvae suspension of the southern root-knot nematode (Meloidogyne incognita) and lettuce seeds. The lettuce seeds germinate and the plants develop. The galls develop on the roots. After 14 days, the nematicidal efficacy in % is determined by the formation of galls. 100% means that no galls were found; 0% means that the number of galls on the treated plants corresponds to the untreated control.

For CCS(=O)(=O)c1cc2ccccc2nc1-c1nc2cc(C(F)(F)F)ncc2n1C [Example I-1, 3-Ethylsulphonyl-2-[3-methyl-6-(trifluoromethyl)imidazo[4,5-c]pyridin-2-yl]quinoline], the “efficacy (kill)” value [1] was 100%, the pest or weed control at 500 g/ha [2] was 100% and the pest or weed control at 500 g/ha [3] was 100%. For the same molecule, the pest or weed control at 100 g/ha [4] was 90%, the chromatographic logP [5] was 2.75 and the “efficacy (kill)” value [6] was 75%. The “efficacy (kill)” value [7] was 100%, the efficacy [8] was 100% and the “nematicidal efficacy (formation of galls)” value [9] was 70%.
